For eleven compounds, TGI and GI50 results are on record in PubChem BioAssay (NCI).

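All cell lines were grown in 96-well plates and treated with compound for 48 hours. The concentration for 50% growth inhibition is given as GI50. TGI is the concentration that stops growth completely.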

Among the test systems are MOLT-4 leukemia; RXF 393 renal; SNB-19 CNS; SNB-75 CNS; EKVX NSCLC; ACHN renal; OVCAR-5 ovarian; COLO 205 colon; HT29 colon.
What all share (assay): NCI-60 cell line screen, 48 h

As for `COC1(C)CP(=O)(OC(C)C)CC(C)=C1Cl` (stereo not drawn), the TGI in the assay with MOLT-4 leukemia was above 100 µM; in the assay on RXF 393 renal, 55.2 µM; in the assay on SNB-19 CNS it was 63.7 µM; in the assay with SNB-75 CNS, above 100 µM; with EKVX NSCLC, 29.6 µM; in the assay with ACHN renal it was above 100 µM. For the same compound, the TGI in the assay on OVCAR-5 ovarian is 39 µM; with COLO 205 colon it was 30.2 µM; in the assay on HT29 colon it was 26.5 µM.

As for `CC(=O)OCC1OC(NC(=S)N/N=C2\CC(c3ccccc3)Oc3ccccc32)C(OC(C)=O)C(OC(C)=O)C1OC(C)=O` (stereo not drawn), the TGI in the assay with MOLT-4 leukemia, in the assay on RXF 393 renal, in the assay on SNB-19 CNS, with SNB-75 CNS, in the assay on EKVX NSCLC and with ACHN renal was above 100 µM throughout. Also, the TGI in the assay on OVCAR-5 ovarian, with COLO 205 colon and with HT29 colon was above 100 µM throughout.

For the compound `NC(=O)NS(=O)(=O)c1ccc(N2N=C(C(F)(F)F)CC2c2cc(C(F)(F)F)cc(C(F)(F)F)c2)cc1` (stereo not drawn), the GI50 in the assay with MOLT-4 leukemia is 4.73 µM; in the assay on RXF 393 renal, 2.86 µM; with SNB-19 CNS, 8.03 µM; in the assay on SNB-75 CNS it was 2.86 µM; in the assay with EKVX NSCLC it was 2.82 µM; in the assay with ACHN renal, 3.95 µM. The values for the GI50 with OVCAR-5 ovarian, in the assay on COLO 205 colon and in the assay with HT29 colon were 13.7 µM, 2.96 µM and 3.1 µM, respectively. Besides, the TGI with MOLT-4 leukemia came out at 55.5 µM; in the assay with RXF 393 renal it was 5.77 µM; in the assay with SNB-19 CNS it was 22.4 µM; in the assay on SNB-75 CNS it was 15.3 µM; in the assay with EKVX NSCLC, 11.3 µM; in the assay with ACHN renal, 14.9 µM. For the same compound, the TGI in the assay on OVCAR-5 ovarian was found to be 29.8 µM; in the assay with COLO 205 colon, 12 µM; in the assay on HT29 colon, 13 µM.

Turning to `O=c1cc(-c2ccccc2)oc2cc(OC/C(=N/O)c3ccccc3)ccc12`, the GI50 is above 50 µM in the assay on MOLT-4 leukemia; 16 µM in the assay with RXF 393 renal; 18.2 µM with SNB-19 CNS; 9.01 µM in the assay on SNB-75 CNS; 24.8 µM with EKVX NSCLC; 9.41 µM with ACHN renal. Also, the results for the GI50 in the assay on OVCAR-5 ovarian, in the assay with COLO 205 colon and with HT29 colon were above 50 µM, above 50 µM and 22.4 µM, respectively. Also, the TGI was above 50 µM in the assay with MOLT-4 leukemia; above 50 µM in the assay on RXF 393 renal; above 50 µM in the assay on SNB-19 CNS; 32.6 µM in the assay on SNB-75 CNS; above 50 µM with EKVX NSCLC; 20.2 µM in the assay with ACHN renal. Also, the TGI in the assay with OVCAR-5 ovarian, in the assay on COLO 205 colon and in the assay with HT29 colon was above 50 µM throughout.

For the compound `CCCCCCCC[C@@H](O)CC(=O)N[C@@H](CC(N)=O)C(=O)N[C@@H](CCC(N)=O)C(=O)N[C@@H](CC(=O)c1cc(C)cc(O)c1C(=O)c1c(O)cccc1O)CC(C)C`, the GI50 in the assay on MOLT-4 leukemia is 0.308 µM; in the assay with RXF 393 renal, 0.214 µM; with SNB-19 CNS, 0.244 µM; in the assay on SNB-75 CNS it was 0.199 µM; with EKVX NSCLC, 3.35 µM; in the assay with ACHN renal, 3.09 µM. Also, the GI50 in the assay on COLO 205 colon is 0.399 µM; in the assay with HT29 colon, 0.404 µM. For the same compound, the TGI is above 100 µM with MOLT-4 leukemia; 0.713 µM in the assay with RXF 393 renal; above 100 µM in the assay with SNB-19 CNS; 0.585 µM in the assay with SNB-75 CNS; 75.5 µM in the assay with EKVX NSCLC; above 100 µM in the assay with ACHN renal. The TGI in the assay on OVCAR-5 ovarian worked out at 27.7 µM; in the assay with COLO 205 colon, 12 µM; in the assay with HT29 colon, 5.49 µM.

On to `C[N+]1=C(/C=C/c2ccc(O)c3ncccc23)C(C)(C)c2ccccc21`, for which the GI50 in the assay with MOLT-4 leukemia was 3.14 µM; in the assay with RXF 393 renal, 4 µM; in the assay with SNB-19 CNS, 3.74 µM; in the assay on SNB-75 CNS it was 2.26 µM; in the assay with EKVX NSCLC it was 2.01 µM; in the assay on ACHN renal, 1.98 µM. For the same compound, the figures for the GI50 in the assay with OVCAR-5 ovarian, with COLO 205 colon and with HT29 colon were 2.42 µM, 2.3 µM and 3.19 µM, respectively. The TGI with MOLT-4 leukemia was above 100 µM; in the assay on RXF 393 renal it was 16 µM; with SNB-19 CNS it was 14.4 µM; in the assay with SNB-75 CNS, 7.78 µM; in the assay with EKVX NSCLC, 7.16 µM; in the assay with ACHN renal, 7.03 µM. The TGI was found to be 12.6 µM in the assay on OVCAR-5 ovarian, 6.11 µM with COLO 205 colon and 12.6 µM with HT29 colon.

For `Cc1c(C(=O)C/C(=N/NC(=O)C[N+](C)(C)C)C(=O)Nc2ccc(Cl)cc2)[n+](=O)c2ccccc2n1O`, the TGI in the assay with MOLT-4 leukemia, in the assay on RXF 393 renal, in the assay on SNB-19 CNS, in the assay on SNB-75 CNS, in the assay on EKVX NSCLC and with ACHN renal was above 100 µM each time. For the same compound, the TGI in the assay on OVCAR-5 ovarian, with COLO 205 colon and in the assay with HT29 colon was above 100 µM throughout.

Regarding `CCCC1N2CCCCC2[C@@H]2c3[nH]c4ccccc4c3CCN12` (stereo partly drawn), the TGI in the assay with MOLT-4 leukemia, in the assay with RXF 393 renal, with SNB-19 CNS, in the assay with SNB-75 CNS, in the assay with EKVX NSCLC and with ACHN renal was above 100 µM each time. Moreover, the TGI in the assay with OVCAR-5 ovarian, in the assay with COLO 205 colon and in the assay with HT29 colon was above 100 µM each time.

As for `Cc1ccc(-c2nc3nc(-c4ccccc4)nc(N4CCCNCC4)c3o2)cc1`, the GI50 is 1.44 µM in the assay with MOLT-4 leukemia; 1.69 µM in the assay on RXF 393 renal; 1.63 µM in the assay with SNB-19 CNS; 1.36 µM with SNB-75 CNS; 1.75 µM in the assay on EKVX NSCLC; 1.73 µM in the assay on ACHN renal. Moreover, the GI50 with OVCAR-5 ovarian was 1.89 µM; in the assay on COLO 205 colon it was 1.96 µM; with HT29 colon it was 1.6 µM. Moreover, the TGI with MOLT-4 leukemia is 3.15 µM; with RXF 393 renal, 3.32 µM; with SNB-19 CNS, 3.11 µM; in the assay on SNB-75 CNS it was 2.68 µM; in the assay on EKVX NSCLC, 3.29 µM; in the assay with ACHN renal, 3.12 µM. Also, the TGI with OVCAR-5 ovarian turned out to be 3.37 µM; in the assay with COLO 205 colon, 3.66 µM; with HT29 colon, 3.08 µM.

For `CN(C)/N=C(/CC(O)(C(F)(F)F)C(F)(F)F)c1ccc([N+](=O)[O-])cc1`, the TGI in the assay on MOLT-4 leukemia, in the assay with RXF 393 renal, in the assay with SNB-19 CNS, with SNB-75 CNS, with EKVX NSCLC and in the assay with ACHN renal was above 100 µM in each case. Moreover, the TGI in the assay with OVCAR-5 ovarian, with COLO 205 colon and in the assay with HT29 colon was above 100 µM throughout.

As for `Nc1cccc(S(=O)(=O)NCC(=O)O)c1`, the TGI with MOLT-4 leukemia, in the assay on RXF 393 renal, in the assay on SNB-19 CNS, in the assay with SNB-75 CNS, with EKVX NSCLC and in the assay with ACHN renal was above 100 µM throughout. Besides, the TGI in the assay with OVCAR-5 ovarian, in the assay on COLO 205 colon and in the assay with HT29 colon was above 100 µM throughout.
